Measured values as given in US4659734A, “Olinecarboxylic acid derivatives” (Nippon Shinyaku Co., Ltd., priority 1983, dated 1987).
Converted amounts (≈) assume the structure as drawn. “Also recorded” adds a separate entry of the source.

Experiments:
[1] = tested on: Bacillus subtilis ATCC 6633; assay: Minimum growth inhibiting concentration, Japan Chemotherapeutic Society method; format: cell-based; details: ATCC6633; Bacillus subtilis ATCC 6633, Gram +; 5% horse blood added agar medium; read-out: Minimum Growth Inhibiting Concn
Method: (§1) The Antibacterial activity of the compounds of Examples 14, 13, 22b, 21 and 15 was determined in accordance with the method of Japan Chemotherapeutic Society (cf. Nippon Kagaku Ryoho Gakkai Shi, volume 29, number 1, pages 76 to 79, 1981) and the results are reported in Table 1, which follows. | *5% Horse blood added agar medium for sensitivity measurement being used.

[2] = tested on: Streptococcus pneumoniae Type I; assay: as above; format: cell-based; details: Gram +, 5% horse blood added agar medium, read-out: Minimum Growth Inhibiting Concn
Method: as §1

[3] = tested on: Streptococcus pyogenes S-23; assay: as above; format: cell-based; details: S23; Streptococcus pyogenes S-23, Gram +; 5% horse blood added agar medium; read-out: Minimum Growth Inhibiting Concn
Method: as §1

[4] = tested on: Pseudomonas aeruginosa E-2; assay: Ascending urinary tract infection; format: in vivo, ICR female mice
Method: ICR Female mice (body weight 20±1 grams) of SPE strain were used in the experiments. The mice were not given any water for seventeen hours, then compulsorily urinated, anesthesized by the administration of 60 mg/kg of pentobarbital into the abdominal cavity, then 1.5×10^5 of Pseudomonas aeruginosa E-2 strain were impregnated into the bladder via the urinary tract, and the external urinary meatus was stopped for four hours by a pin clip, whereupon the mice were infected in the ascending urinary tract.
The compound of Example 22b was given once orally, 4 hours after infection, then twice a day, and the administration was continued for three days. On the fourth day, the kidney was isolated, homogenized in a physiological saline solution, and the number of bacteria was calculated on suitable medium such as, for example, Drigalski medium. If the number of bacteria per one gram of kidney was less than […], then the compound was judged as "effective".

[5] = tested on: Escherichia coli NIHJ JC-2; assay: Minimum growth inhibiting concentration, Japan Chemotherapeutic Society method; format: cell-based; details: NIHJJC2; Escherichia coli NIHJ JC-2, Gram -; read-out: Minimum Growth Inhibiting Concn
Method: (§2) The Antibacterial activity of the compounds of Examples 14, 13, 22b, 21 and 15 was determined in accordance with the method of Japan Chemotherapeutic Society (cf. Nippon Kagaku Ryoho Gakkai Shi, volume 29, number 1, pages 76 to 79, 1981) and the results are reported in Table 1, which follows.

[6] = tested on: Staphylococcus aureus 209-PJC; assay: as above; format: cell-based; details: Gram +, read-out: Minimum Growth Inhibiting Concn
Method: as §2

Proteus vulgaris DX-19 = assay: as above; format: cell-based; details: DX19; Proteus vulgaris DX-19, Gram -; read-out: Minimum Growth Inhibiting Concn
Method: as §2

[7] = tested on: Serracia marcescens IFO 3736; assay: as above; format: cell-based; details: Serracia marcescens IFO 3736, Gram -; read-out: Minimum Growth Inhibiting Concn
Method: as §2

[8] = tested on: Klebsiella pneumoniae K-1966; assay: as above; format: cell-based; details: K1966; Klebsiella pneumoniae K-1966, Gram -; read-out: Minimum Growth Inhibiting Concn
Method: as §2

[9] = tested on: Alcaligenes faecalis ATCC 8750; assay: as above; format: cell-based; details: ATCC8750; Alcaligenes faecalis ATCC 8750, Gram -; read-out: Minimum Growth Inhibiting Concn
Method: as §2

[10] = Excretion into urine and recovery, disc method; format: in vivo, ddY strain mice; details: 60 mg/kg per os; for Amount excreted into Urine: average ± standard error
Method: In the measurement of excretion into urine, ddY strain mice (male; body weights 30±2 grams) were used. Sixty mg/kg of the compound of Example 22b was administered per os and the mice were fed in metabolic cages and their urine was collected.
Therefore, in the quantitative determination, the calibration curve of the compound of Example 21, calculated by the disc method using Escherichia coli NIHJ strain and using the compound dissolved in phosphoric acid buffer (pH 8.0; 1/15M) was used. Table 5 reports the excretion into urine with respect to time, total recovery amount and recovery rate of the compound of Example 22b.

[11] = tested on: Acimetobacter calcoaceticus; assay: Mouse intraperitoneal infection, survival after one week; format: in vivo, ddY strain mice; details: po, 1 × 10^7 per mouse, one dose per os 2 h after infection
Method: (§3) ddY--Strain mice (male; body weight 20±1 grams) of SPF were innoculated with the bacteria set forth in Table 2 by administration of a supension of the bacterial in 4% mucin solution into the abdominal cavity. A compound of the invention was given one time per os two hours after the infection, and, from the survival rate after one week. 50% effective doses (ED50) were calculated by the Behrens-Karber method.

Escherichia coli KC-14 = assay: as above; format: in vivo, ddY strain mice; details: KC14, po; Escherichia coli KC-14, 5 × 10^4 per mouse; one dose per os 2 h after infection
Method: as §3

[12] = tested on: Pseudomonas aeruginosa E-2; assay: as above; format: in vivo, ddY strain mice; details: E2, po; Pseudomonas aeruginosa E-2, 2 × 10^5 per mouse; one dose per os 2 h after infection; Behrens-Karber
Method: as §3

Serracia marcescens T-55 = assay: as above; format: in vivo, ddY strain mice; details: po; Serracia marcescens T-55, 5 × 10^6 per mouse; one dose per os 2 h after infection
Method: as §3

Proteus mirabilis 181 = assay: as above; format: in vivo, ddY strain mice; details: po; Proteus mirabilis 181, 2 × 10^7 per mouse; one dose per os 2 h after infection
Method: as §3

[13] = tested on: Staphylococcus aureus Smith; assay: as above; format: in vivo, ddY strain mice; details: po, 3 × 10^6 per mouse, one dose per os 2 h after infection
Method: as §3

[14] = tested on: Klebsiella pneumoniae K-1966; assay: as above; format: in vivo, ddY strain mice; details: K1966, po; Klebsiella pneumoniae K-1966, 3 × 10^3 per mouse; one dose per os 2 h after infection
Method: as §3

Acute toxicity = details: mouse, in vivo; oral, groups of ten ddY male mice; read-out: 50% Lethal Doses (LD50)
Method: Groups of ten ddY strain male mice (body weights: 20±1 grams) of the test compound were orally administered to determine the LD50. There was […] in which many mice died when the dose was 2000 mg/kg or less.

For `Cc1csc2c(C(=O)O)c(=O)c3cc(F)c(N4CCN(C)CC4)cc3n12` [Example 22b, 7-fluoro-1-methyl-8-(4-methyl-1-piperazinyl)-5-oxo-5H-thiazolo(3,2-a)-quinoline-4-carboxylic acid], the MIC [1] was 0.0008 µg/mL (≈ 0.00213 µM), the MIC [2] was 0.39 µg/mL (≈ 1.04 µM) and the MIC [3] was 0.2 µg/mL (≈ 0.533 µM). The “Number Of Mice Where Compound Was Effective/Total Mice Tested” value ([4]; 3.13 mg/kg oral) was 1/7, the “Number Of Mice Where Compound Was Effective/Total Mice Tested” value ([4]; 6.25 mg/kg oral) was 4/7 and the “Number Of Mice Where Compound Was Effective/Total Mice Tested” value ([4]; 12.5 mg/kg oral) was 4/7. The “Number Of Mice Where Compound Was Effective/Total Mice Tested” value ([4]; 25 mg/kg oral) was 6/7, the “Number Of Mice Where Compound Was Effective/Total Mice Tested” value ([4]; 50 mg/kg oral) was 7/7 and the “Number Of Mice Where Compound Was Effective/Total Mice Tested” value ([4]; 100 mg/kg oral, 4 h after infection then twice a day, three days) was 7/7. The ED50 ([4]; Pseudomonas aeruginosa, E2, in Mus musculus, 72 h, ascending urinary tract infection, oral, three days, read-out: 50% Effective Dose) was 8 mg/kg, the MIC [5] was 0.025 µg/mL (≈ 0.0666 µM) and the MIC [6] was 0.013 µg/mL (≈ 0.0346 µM). For the same molecule, the MIC (Proteus vulgaris DX-19) was 0.1 µg/mL (≈ 0.266 µM), the MIC [7] was 0.39 µg/mL (≈ 1.04 µM) and the MIC [8] was 0.05 µg/mL (≈ 0.133 µM). For the same molecule, the MIC [9] was 0.78 µg/mL (≈ 2.08 µM), the “Amount excreted into Urine” value ([10]; 0-3 hrs) was 268.1 ± 84.4 µg and the “Total Recovery in urine” value ([10]; 0-24 hrs) was 813.9 µg. For the same molecule, the “excretion into urine (in words)” value ([10]; mice) was “excreted into urine almost completely; also recorded: excreted into urine promptly and in high concentration which is continued and exhibits high recovery rate”, the “metabolism (in words)” value ([10]; mice) was “metabolized to the compound of Example 21” and the “Amount excreted into Urine” value ([10]; 3-6 hrs) was 108.3 ± 33.1 µg. For the same molecule, the “Amount excreted into Urine” value ([10]; 6-24 hrs) was 437.5 ± 21.8 µg, the ED50 [11] was 17.5 mg/kg and the ED50 (Escherichia coli KC-14) was 1.1 mg/kg. It also gave an ED50 [12] of 13.1 mg/kg, an ED50 (Serracia marcescens T-55) of 5.4 mg/kg and an ED50 (Proteus mirabilis 181) of 13 mg/kg. The ED50 [13] was 2.4 mg/kg, the ED50 [14] was 2.7 mg/kg and the LD50 (Acute toxicity) was over 2000 mg/kg.
